Measured values: article PMC12722994, “The aryl hydrocarbon receptor is associated with monocytic AML and innate immune resistance reversible with an AHR inhibitor” (Frontiers in Immunology, 2025)

Biological target: T1, aryl hydrocarbon receptor (AHR) (Homo sapiens, UniProt P35869)
T1 sequence (P35869 11-848): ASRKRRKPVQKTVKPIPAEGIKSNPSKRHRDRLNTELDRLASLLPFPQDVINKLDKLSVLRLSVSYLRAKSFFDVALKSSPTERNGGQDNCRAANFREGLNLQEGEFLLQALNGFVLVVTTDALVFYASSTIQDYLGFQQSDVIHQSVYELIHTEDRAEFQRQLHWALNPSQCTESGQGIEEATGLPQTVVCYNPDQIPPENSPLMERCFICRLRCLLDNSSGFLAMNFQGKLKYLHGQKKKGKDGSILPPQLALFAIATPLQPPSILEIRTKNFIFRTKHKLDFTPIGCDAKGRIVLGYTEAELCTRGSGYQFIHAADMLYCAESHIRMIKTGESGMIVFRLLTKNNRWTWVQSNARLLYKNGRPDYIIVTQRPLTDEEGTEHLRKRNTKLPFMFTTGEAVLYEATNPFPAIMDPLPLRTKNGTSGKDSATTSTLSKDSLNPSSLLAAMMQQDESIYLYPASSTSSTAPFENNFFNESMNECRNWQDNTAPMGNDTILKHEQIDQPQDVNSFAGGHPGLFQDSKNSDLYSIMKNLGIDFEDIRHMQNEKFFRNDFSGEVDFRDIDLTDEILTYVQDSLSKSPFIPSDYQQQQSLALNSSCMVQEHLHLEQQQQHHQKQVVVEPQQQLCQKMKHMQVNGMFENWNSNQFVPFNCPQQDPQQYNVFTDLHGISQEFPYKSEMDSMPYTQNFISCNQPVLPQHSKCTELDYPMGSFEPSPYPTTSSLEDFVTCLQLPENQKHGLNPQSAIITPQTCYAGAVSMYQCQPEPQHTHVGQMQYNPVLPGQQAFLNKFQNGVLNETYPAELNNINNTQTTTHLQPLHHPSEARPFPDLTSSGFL
Assay: Inhibition of AHR target gene CYP1B1 expression (RT-qPCR) in MOLM-14 cells, endogenous AHR; functional readout only
Assay type: cell-based

- IC50: 5 nM
Substance: IK-364
